Source: US20130224300A1, “COMPOSITIONS AND METHODS THEREOF FOR ORAL ADMINISTRATION OF DRUGS” (priority 2011, published 2013)

Experiment: Sumatriptan pharmacokinetics after oral gavage in cocoa butter with or without DDM
Assay type: in vivo, beagle dogs
Details: 25 mg in cocoa butter with 1% DDM vs no-DDM control, dog, 0-180 min
Protocol: The plot depicts serum concentrations of sumatriptan in a canine at zero through 180 min. following oral delivery (by gavage) of 25 mg sumatriptan in 1.0% DDM in a non-aqueous solution comprising cocoa butter. The solid circles represent plasma sumatriptan concentrations for doses not containing DDM (the control) and the solid squares show plasma sumatriptan concentrations for the sumatriptan doses containing DDM.
Sumatriptan, 2.5 g, was dissolved in 100 mL of cocoa butter at 45 deg. […] (in the liquid state) resulting in a solution having a sumatriptan concentration of 25 mg/mL. The solution was divided into two equal 50 mL portions. To one was added 500 mg DDM. Both solutions were kept at 45 degrees C. until the DDM is seen to have completely dissolved upon visual inspection yielding a 1% DDM solution in cocoa butter. The solutions were then cooled to about 4-10 degrees C. to allow the cocoa butter to solidify. One mL portions of the solidified cocoa butter-sumatriptan-DDM solution and one mL portions of the cocoa butter-sumatriptan (no DDM) control were formed into spherical balls and administered to beagle dogs by oral gavage. Blood samples were collected at timed intervals and plasma sumatriptan concentrations measured using a standard clinical assay.

increase in oral absorption based upon the relative AUC's: ~19%
Compound: CNS(=O)(=O)Cc1ccc2[nH]cc(CCN(C)C)c2c1 [sumatriptan]
